# According to patent publication US12629374B2, “Antimalarial agents” (Merck Sharp & Dohme LLC, priority 2020, dated 2026):
# Where a name gives a salt, the structure may show the parent alone.
# Tested on: ring stage parasites
# Experiment: Parasite growth potency assay, 72 hours, LDH readout
# Assay type: cell-based
# Settings: 72 h, parasite growth measured by LDH assay after 72 hours at 37° C.; 0.7% rings, 2% haematocrit; read-out: EC50
# Experimental: The parasite stock was maintained at 4% haematocrit in RPMI-Hepes media buffered with sodium bicarbonate and supplemented with 5% heat inactivated human serum and 0.5% albumax.
# On the day of assay set up, a blood smear of the parasite culture was Giemsa stained and counted. The parasitemia was adjusted to 0.7% rings and the haematocrit was diluted to 2% in RPMI-Hepes media buffered with sodium bicarbonate and supplemented with 5% heat inactivated human serum and 0.5% albumax. 30 ul of diluted parasites are then added into 10 ul of media+compound in pre-prepared Greiner TC assay plates. Parasite assay plates were placed in gassed humidified boxes in single layer and allowed to incubate at 37° C. for 72 hours. After 72 hours growth, assay plates are sealed with parafilm and frozen flat, in single file at −80° C. overnight. On the following day, assay plates are allowed to thaw at room temperature for 4 hours to which an LDH assay is performed to measure parasite growth.
row,Compound,EC50 [nM]
1,"CCC1(CC)CC(=O)N([C@H](c2cccc(C(=O)N[C@H]3CCOc4ccccc43)c2)c2cncs2)C(=N)N1 (single isomer, unassigned) [Example 85B, trifluoroacetate]",2.1
2,"CCC1(CC)CC(=O)N([C@@H](COCCOC)c2cccc(C(=O)N[C@H]3CC(C)(C)Oc4ccccc43)c2)C(=N)N1 (single isomer, unassigned) [Example 112B, trifluoroacetate]",59.6
3,"CCC1(CC)CC(=O)N(Cc2cccc(C(=O)N[C@@H]3c4ccccc4OCC3O)c2)C(=N)N1 (single isomer, unassigned) [Example 126A, 3-[(4,4-diethyl-2-imino-6-oxo-hexahydropyrimidin-1-yl)methyl]-N-(3-hydroxychroman-4-yl)benzamide]",19.4
4,"CCC[C@H](c1cccc(C(=O)N[C@@H]2c3ccccc3OCC2O)c1)N1C(=N)NC(CC)(CC)CC1=O (single isomer, unassigned) [Example 127B]",1.2
5,"CCC1(CC)CC(=O)N([C@H](CCOC)c2cccc(C(=O)NC3c4ccccc4CC3(C)O)c2)C(=N)N1 (single isomer, unassigned) [Example 142B, 3-[1-(4,4-diethyl-2-imino-6-oxo-hexahydropyrimidin-1-yl)-3-methoxy-propyl]-N-(2-hydroxy-2-methyl-indan-1-yl)benzamide]",1.4
6,"CCC1(CC)CC(=O)N([C@H](CCOC)c2cc(F)cc(C(=O)N[C@H]3c4ccccc4CC3(C)O)c2)C(=N)N1 (single isomer, unassigned) [Example 144A, 3-[1-(4,4-diethyl-2-imino-6-oxo-hexahydropyrimidin-1-yl)-3-methoxy-propyl]-5-fluoro-N-(2-hydroxy-2-methyl-indan-1-yl)benzamide]",81.6

# Same assay, conditions: parasite growth measured by LDH assay after 72 hours at 37° C.; 0.7% rings, 2% haematocrit; read-out: EC50
row,Compound,EC50 [nM]
1,"CCC1(CC)CC(=O)N(C(c2cncnc2)c2cccc(C(=O)NC3CC(C)(C)Oc4ccccc43)c2)C(=N)N1 (single isomer, unassigned) [Example 92A, 3-[(4,4-diethyl-2-imino-6-oxo-hexahydropyrimidin-1-yl)-pyrimidin-5-yl-methyl]-N-(2,2-dimethylchroman-4-yl)benzamide]",25.5
2,"CCC1(CC)CC(=O)N(C(c2cncnc2)c2cccc(C(=O)NC3CC(C)(C)Oc4ccccc43)c2)C(=N)N1 (single isomer, unassigned) [Example 92C, 3-[(4,4-diethyl-2-imino-6-oxo-hexahydropyrimidin-1-yl)-pyrimidin-5-yl-methyl]-N-(2,2-dimethylchroman-4-yl)benzamide]",2.8
3,"CCC12CCCCCCC3COc4ccccc4C3NC(=O)c3cccc(c3)CN(C(=N)N1)C(=O)C2 (single isomer, unassigned) [Example 120A, (26-ethyl-8,29-dioxo-17-oxa-1,9,27-triazapentacyclo[24.2.2.13,7.010,19. 011,16]hentriaconta-3,5,7(31),11(16),12,14-hexaen-28-ylidene)ammonium; 2,2,2-trifluoroacetate]",70.3
4,"CCC12CCCCCCC3COc4ccccc4C3NC(=O)c3cccc(c3)CN(C(=N)N1)C(=O)C2 (single isomer, unassigned) [Example 120B, (26-ethyl-8,29-dioxo-17-oxa-1,9,27-triazapentacyclo[24.2.2.13,7.010,19. 011,16]hentriaconta-3,5,7(31),11(16),12,14-hexaen-28-ylidene)ammonium; 2,2,2-trifluoroacetate]",35.5
5,"CCC12CCCCCCC3COc4ccccc4C3NC(=O)c3cccc(c3)CN(C(=N)N1)C(=O)C2 (single isomer, unassigned) [Example 120C, (26-ethyl-8,29-dioxo-17-oxa-1,9,27-triazapentacyclo[24.2.2.13,7.010,19. 011,16]hentriaconta-3,5,7(31),11(16),12,14-hexaen-28-ylidene)ammonium; 2,2,2-trifluoroacetate]",21.9
6,"CCC12CCCCCCC3COc4ccccc4C3NC(=O)c3cccc(c3)CN(C(=N)N1)C(=O)C2 (single isomer, unassigned) [Example 120D, (26-ethyl-8,29-dioxo-17-oxa-1,9,27-triazapentacyclo[24.2.2.13,7.010,19. 011,16]hentriaconta-3,5,7(31),11(16),12,14-hexaen-28-ylidene)ammonium; 2,2,2-trifluoroacetate]",27.6
7,"CCC[C@H](c1cccc(C(=O)N[C@H]2c3ccccc3CC2(C)O)c1)N1C(=N)NC(CC)(CC)CC1=O (single isomer, unassigned) [Example 122B]",17.7
8,"CCC[C@H](c1cccc(C(=O)N[C@H]2c3ccccc3CC2(C)O)c1)N1C(=N)NC(CC)(CC)CC1=O (single isomer, unassigned) [Example 122C]",57.3
9,"CCC1(CC)CC(=O)N([C@H](CCOC)c2cc(F)cc(C(=O)N[C@H]3c4ccccc4CC3(C)O)c2)C(=N)N1 (single isomer, unassigned) [Example 144C, 3-[1-(4,4-diethyl-2-imino-6-oxo-hexahydropyrimidin-1-yl)-3-methoxy-propyl]-5-fluoro-N-(2-hydroxy-2-methyl-indan-1-yl)benzamide]",99.5
10,"CCC1(CC)CC(=O)N([C@H](CCOC)c2cccc(C(=O)N[C@@H]3c4ccccc4CC3(O)C(F)(F)F)c2)C(=N)N1 (single isomer, unassigned) [Example 204A]",21
11,"CCC1(CC)CC(=O)N([C@H](CCOC)c2cccc(C(=O)N[C@@H]3c4ccccc4CC3(O)C(F)(F)F)c2)C(=N)N1 (single isomer, unassigned) [Example 204B]",8.5
12,"CC[C@]1(C)CC(=O)N([C@H](CCOC)c2cccc(C(=O)NC3c4ccccc4OC(C)(C)C3(C)O)c2)C(=N)N1 (single isomer, unassigned) [Example 234A]",0.43
13,"CC[C@]1(C)CC(=O)N([C@H](CCOC)c2cccc(C(=O)NC3c4ccccc4OC(C)(C)C3(C)O)c2)C(=N)N1 (single isomer, unassigned) [Example 234B]",74.8
14,"CCC1(CC)CC(=O)N(C(CC(O)C(F)(F)F)c2cccc(C(=O)N[C@@H]3c4ccccc4C[C@H]3O)c2)C(=N)N1 (single isomer, unassigned) [Example 236A]",55
15,"CCC1(CC)CC(=O)N(C(CC(O)C(F)(F)F)c2cccc(C(=O)N[C@@H]3c4ccccc4C[C@H]3O)c2)C(=N)N1 (single isomer, unassigned) [Example 236B]",0.96
16,"CCC1(CC)CC(=O)N(C(CC(O)C(F)(F)F)c2cccc(C(=O)N[C@@H]3c4ccccc4C[C@H]3O)c2)C(=N)N1 (single isomer, unassigned) [Example 236C]",2.3
17,"CC[C@]1(C)CC(=O)N([C@H](CCOC)c2cccc(C(=O)NC3c4cc(F)ccc4OC(C)(C)C3(C)O)c2)C(=N)N1 (single isomer, unassigned) [Example 237A]",54.6
18,"CC[C@]1(C)CC(=O)N([C@H](CCOC)c2cccc(C(=O)NC3c4cc(F)ccc4OC(C)(C)C3(C)O)c2)C(=N)N1 (single isomer, unassigned) [Example 237B]",0.19
19,"CCC1(CC)CC(=O)N(C(CC(OC)C(F)(F)F)c2cccc(C(=O)N[C@@H]3c4ccccc4C[C@H]3O)c2)C(=N)N1 (single isomer, unassigned) [Example 238A]",1.94
20,"CCC1(CC)CC(=O)N(C(CC(OC)C(F)(F)F)c2cccc(C(=O)N[C@@H]3c4ccccc4C[C@H]3O)c2)C(=N)N1 (single isomer, unassigned) [Example 238B]",67.5
21,"CCC1(CC)CC(=O)N(C(CC(OC)C(F)(F)F)c2cccc(C(=O)N[C@@H]3c4ccccc4C[C@H]3O)c2)C(=N)N1 (single isomer, unassigned) [Example 238C]",2.32
22,"CCC1(CC)CC(=O)N(C(CC(OC)C(F)(F)F)c2cccc(C(=O)N[C@@H]3c4ccccc4C[C@H]3O)c2)C(=N)N1 (single isomer, unassigned) [Example 238D]",2.25

# Same assay, conditions: parasite growth measured by LDH assay after 72 hours at 37° C.; 0.7% rings, 2% haematocrit; trifluoroacetate; read-out: EC50
row,Compound,EC50 [nM]
1,"CCC1(CC)CC(=O)N(Cc2cccc(C(=O)NC3CC(C)(C)Oc4ccccc43)c2)C(=N)N1 (single isomer, unassigned) [Example 51A, [1-[[3-[(2,2-dimethylchroman-4-yl)carbamoyl]phenyl]methyl]-4,4-diethyl-6-oxo-hexahydropyrimidin-2-ylidene]ammonium; 2,2,2-trifluoroacetate]",91.9
2,"CCC1(CC)CC(=O)N(Cc2cccc(C(=O)NC3CC(C)(C)Oc4ccccc43)c2)C(=N)N1 (single isomer, unassigned) [Example 51B, [1-[[3-[(2,2-dimethylchroman-4-yl)carbamoyl]phenyl]methyl]-4,4-diethyl-6-oxo-hexahydropyrimidin-2-ylidene]ammonium; 2,2,2-trifluoroacetate]",0.5
3,"CCC1(CC)CC(=O)N([C@H](CCOC)c2cc(F)cc(C(=O)NC3c4ccccc4OC3(C)COC)c2)C(=N)N1 (single isomer, unassigned) [Example 176A, trifluoroacetate]",21.8
4,"CCC1(CC)CC(=O)N([C@H](CCOC)c2cc(F)cc(C(=O)NC3c4ccccc4OC3(C)COC)c2)C(=N)N1 (single isomer, unassigned) [Example 176C, trifluoroacetate]",98.9
5,"CCC1(CC)CC(=O)N([C@H](CCOC)c2cccc(C(=O)N[C@@H]3c4ccccc4OC3(C)CO)c2)C(=N)N1 (single isomer, unassigned) [Example 180A, trifluoroacetate]",1.5
6,"CCC1(CC)CC(=O)N([C@H](CCOC)c2cccc(C(=O)N[C@@H]3c4ccccc4OC3(C)CO)c2)C(=N)N1 (single isomer, unassigned) [Example 180B, trifluoroacetate]",15.3
